Experimental findings from ChEMBL document CHEMBL4219047, “Optimization of peptide-based polyagonists for treatment of diabetes and obesity” (Bioorg Med Chem, 2018) are described below.

Where a SMILES comes first, the peptide text is derived from it. Where only a bound is given, the exact number is not on record here.

The species named for one assay is Mus musculus. The assay can be described thus: Selectivity ratio of EC50 for mouse GLP1 receptor to EC50 for mouse GCG receptor.
In assay [1] the target is T1, Glucagon receptor (Homo sapiens, UniProt P47871). The assay can be described thus: Agonist activity at human GCG receptor expressed in CHO cells assessed as increase in cAMP level by TR-FRET assay relative to glucagon. Format: functional, cell-based.
Assay [2] has as its target Glucagon receptor (Mus musculus, UniProt Q61606). The assay can be described thus: Agonist activity at mouse GCG receptor expressed in CHO cells assessed as increase in cAMP level by TR-FRET assay. Format: functional, cell-based.
The target in assay [3] is T1, Glucagon receptor. In words: Agonist activity at human GCG receptor expressed in CHO cells assessed as increase in cAMP level by TR-FRET assay. It counts as functional, cell-based.
Assay [4] deals with T2, Glucagon-like peptide 1 receptor (Homo sapiens, UniProt P43220). In words: Agonist activity at human GLP1 receptor expressed in CHO cells assessed as increase in cAMP level by TR-FRET assay. Format: functional, cell-based.
Assay [5] has as its target T3, Glucagon-like peptide 1 receptor (Mus musculus, UniProt O35659).
T3 sequence (O35659 whole entry): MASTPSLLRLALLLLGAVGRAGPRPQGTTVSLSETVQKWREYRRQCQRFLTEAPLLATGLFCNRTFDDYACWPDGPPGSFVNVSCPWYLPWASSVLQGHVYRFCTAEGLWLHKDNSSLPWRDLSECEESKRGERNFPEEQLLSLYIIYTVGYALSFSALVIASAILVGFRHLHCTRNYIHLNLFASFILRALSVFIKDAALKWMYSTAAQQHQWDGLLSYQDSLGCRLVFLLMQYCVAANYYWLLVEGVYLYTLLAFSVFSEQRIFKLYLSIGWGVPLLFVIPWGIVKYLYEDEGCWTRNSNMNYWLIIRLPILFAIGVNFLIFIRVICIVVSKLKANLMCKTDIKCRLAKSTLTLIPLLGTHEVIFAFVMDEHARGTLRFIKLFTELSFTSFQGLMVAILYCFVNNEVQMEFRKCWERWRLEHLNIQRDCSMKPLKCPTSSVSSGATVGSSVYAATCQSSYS
In words: Agonist activity at mouse GLP1 receptor expressed in CHO cells assessed as increase in cAMP level by TR-FRET assay. It counts as functional, cell-based.

Assay [6] concerns the target T1, Glucagon receptor. In words: Agonist activity at human GCG receptor expressed in HEK293 cells assessed as increase in cAMP level after 5 hrs by CRE driven luciferase reporter gene assay relative to glucagon. Format: functional, cell-based.
For assay [7], the target named is T1, Glucagon receptor. The assay can be described thus: Agonist activity at human GCG receptor expressed in HEK293 cells assessed as increase in cAMP level after 5 hrs by CRE driven luciferase reporter gene assay. It counts as functional, cell-based.
The target of assay [8] is T2, Glucagon-like peptide 1 receptor. In words: Agonist activity at human GLP1 receptor expressed in HEK293 cells assessed as increase in cAMP level after 5 hrs by CRE driven luciferase reporter gene assay. It counts as functional, cell-based.
Assay [9] deals with T4, Gastric inhibitory polypeptide receptor (Homo sapiens, UniProt P48546).
T4 sequence (P48546 whole entry): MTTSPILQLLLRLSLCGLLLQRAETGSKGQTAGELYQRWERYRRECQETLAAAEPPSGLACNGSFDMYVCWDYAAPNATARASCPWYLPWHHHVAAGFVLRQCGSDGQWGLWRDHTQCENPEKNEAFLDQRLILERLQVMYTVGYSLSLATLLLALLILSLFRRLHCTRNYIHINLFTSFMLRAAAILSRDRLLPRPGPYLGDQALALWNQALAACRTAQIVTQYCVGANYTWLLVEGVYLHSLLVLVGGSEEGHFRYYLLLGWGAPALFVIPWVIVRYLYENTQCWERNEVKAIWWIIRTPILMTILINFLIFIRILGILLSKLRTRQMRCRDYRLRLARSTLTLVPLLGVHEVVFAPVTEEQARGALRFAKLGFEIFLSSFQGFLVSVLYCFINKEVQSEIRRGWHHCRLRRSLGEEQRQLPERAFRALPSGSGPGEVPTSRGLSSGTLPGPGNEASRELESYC
The assay can be described thus: Agonist activity at human GIP receptor expressed in HEK293 cells assessed as increase in cAMP level after 5 hrs by CRE driven luciferase reporter gene assay. Format: functional, cell-based.

Assay [10] concerns the target T2, Glucagon-like peptide 1 receptor. The assay can be described thus: Agonist activity at human GLP1 receptor expressed in HEK293 cells assessed as increase in cAMP level after 5 hrs by CRE driven luciferase reporter gene assay relative to GLP1. It counts as functional, cell-based. Details: concentration or dose not given beside the values.
The target of assay [11] is T5, Gastric inhibitory polypeptide receptor (Homo sapiens) (UniProt P48546).
T5 sequence (whole entry): T4 sequence (P48546 whole entry)
In words: Agonist activity at human GIP receptor expressed in HEK293 cells assessed as increase in cAMP level after 5 hrs by CRE driven luciferase reporter gene assay relative to GIP. It counts as functional, cell-based. Details: concentration or dose not given beside the values.

T2 sequence (P43220 whole entry): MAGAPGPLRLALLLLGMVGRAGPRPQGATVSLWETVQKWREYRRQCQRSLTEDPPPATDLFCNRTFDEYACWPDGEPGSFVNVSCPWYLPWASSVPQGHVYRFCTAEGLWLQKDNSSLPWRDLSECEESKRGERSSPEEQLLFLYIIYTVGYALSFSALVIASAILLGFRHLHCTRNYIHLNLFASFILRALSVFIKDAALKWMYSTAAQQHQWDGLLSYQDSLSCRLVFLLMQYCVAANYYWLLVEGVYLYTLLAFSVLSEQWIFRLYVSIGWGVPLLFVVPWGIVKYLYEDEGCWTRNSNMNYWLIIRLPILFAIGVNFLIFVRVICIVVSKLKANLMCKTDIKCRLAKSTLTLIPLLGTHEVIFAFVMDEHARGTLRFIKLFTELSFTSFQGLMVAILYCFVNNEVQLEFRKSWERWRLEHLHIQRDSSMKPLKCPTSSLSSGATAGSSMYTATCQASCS
T1 sequence (P47871 whole entry): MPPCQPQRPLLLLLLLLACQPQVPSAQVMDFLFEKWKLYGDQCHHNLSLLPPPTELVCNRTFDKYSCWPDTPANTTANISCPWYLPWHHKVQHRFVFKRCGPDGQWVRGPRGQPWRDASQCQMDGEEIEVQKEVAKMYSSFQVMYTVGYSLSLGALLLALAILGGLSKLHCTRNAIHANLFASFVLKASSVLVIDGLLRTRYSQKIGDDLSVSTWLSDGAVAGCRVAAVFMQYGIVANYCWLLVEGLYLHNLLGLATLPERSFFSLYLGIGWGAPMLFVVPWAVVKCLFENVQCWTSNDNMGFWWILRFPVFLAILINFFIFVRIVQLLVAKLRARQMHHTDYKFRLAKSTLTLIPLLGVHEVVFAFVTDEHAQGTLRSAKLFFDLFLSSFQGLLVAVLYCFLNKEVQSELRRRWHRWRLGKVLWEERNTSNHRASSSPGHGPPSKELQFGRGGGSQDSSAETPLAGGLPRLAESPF
Sequence of Glucagon receptor (Mus musculus, UniProt Q61606) (Q61606 whole entry): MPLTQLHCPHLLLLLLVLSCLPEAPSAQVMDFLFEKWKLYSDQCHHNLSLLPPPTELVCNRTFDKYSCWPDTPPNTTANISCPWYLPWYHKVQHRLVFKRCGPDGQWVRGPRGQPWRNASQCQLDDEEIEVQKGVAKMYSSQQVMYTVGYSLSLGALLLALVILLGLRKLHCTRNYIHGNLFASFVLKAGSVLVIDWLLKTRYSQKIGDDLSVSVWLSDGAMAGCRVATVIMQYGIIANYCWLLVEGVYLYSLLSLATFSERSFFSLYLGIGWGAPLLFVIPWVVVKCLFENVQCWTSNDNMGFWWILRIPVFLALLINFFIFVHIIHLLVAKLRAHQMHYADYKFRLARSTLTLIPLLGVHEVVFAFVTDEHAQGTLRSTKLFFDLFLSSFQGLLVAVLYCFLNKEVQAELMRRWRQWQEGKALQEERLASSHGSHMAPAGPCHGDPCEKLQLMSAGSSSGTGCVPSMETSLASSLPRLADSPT

Regarding `CC[C@H](C)[C@H](NC(=O)[C@H](Cc1ccccc1)NC(=O)[C@H](CCC(=O)O)NC(=O)[C@H](CCCCN)NC(=O)[C@H](C)NC(=O)[C@H](C)NC(=O)[C@H](CCC(N)=O)NC(=O)CNC(=O)[C@H](CCC(=O)O)NC(=O)[C@H](CC(C)C)NC(=O)[C@H](Cc1ccc(O)cc1)NC(=O)[C@H](CCCCN)NC(=O)[C@H](CO)NC(=O)[C@@H](NC(=O)[C@H](CC(=O)O)NC(=O)[C@H](CO)NC(=O)[C@@H](NC(=O)[C@H](Cc1ccccc1)NC(=O)[C@@H](NC(=O)CNC(=O)[C@H](CCC(=O)O)NC(=O)[C@H](C)NC(=O)[C@@H](N)Cc1cnc[nH]1)[C@@H](C)O)[C@@H](C)O)C(C)C)C(=O)N[C@@H](C)C(=O)N[C@@H](Cc1c[nH]c2ccccc12)C(=O)N[C@@H](CC(C)C)C(=O)N[C@H](C(=O)N[C@@H](CCCCN)C(=O)NCC(=O)N[C@@H](CCCNC(=N)N)C(N)=O)C(C)C`, the Ratio EC50 in the assay listed under Mus musculus is below 0.001. For the same molecule, the Activity at Glucagon receptor [1] was below 0.05%. Further, the EC50 on Glucagon receptor [2] is above 100 nM; on Glucagon receptor [3] it was above 1000 nM; in assay [4], 0.09 nM; in assay [5], 0.03 nM.

Regarding `CC[C@H](C)[C@H](NC(=O)[C@H](Cc1ccccc1)NC(=O)[C@H](CCC(=O)O)NC(=O)[C@H](CCCCN)NC(=O)[C@H](C)NC(=O)[C@H](C)NC(=O)[C@H](CCC(N)=O)NC(=O)[C@H](CCC(=O)O)NC(=O)[C@H](CC(=O)O)NC(=O)[C@H](CC(C)C)NC(=O)[C@H](Cc1ccc(O)cc1)NC(=O)[C@H](CCCCN)NC(=O)[C@H](CO)NC(=O)[C@H](Cc1ccc(O)cc1)NC(=O)[C@H](CC(=O)O)NC(=O)[C@H](CO)NC(=O)[C@@H](NC(=O)[C@H](Cc1ccccc1)NC(=O)[C@@H](NC(=O)CNC(=O)[C@H](CCC(N)=O)NC(=O)[C@H](CO)NC(=O)[C@@H](N)Cc1cnc[nH]1)[C@@H](C)O)[C@@H](C)O)C(=O)N[C@@H](C)C(=O)N[C@@H](Cc1c[nH]c2ccccc12)C(=O)N[C@@H](CC(C)C)C(=O)N[C@@H](CCSC)C(=O)N[C@@H](CC(N)=O)C(=O)N[C@H](C(N)=O)[C@@H](C)O` (H-HSQGTFTSDYSKYLDEQAAKEFIAWLMNT-NH2), the figures for the Activity (at Glucagon receptor [6]; in assay [10]; in assay [11]) were 103%, 127% and 0%, respectively. Besides, the 50% effective concentration (EC50) came to 0.031 nM at Glucagon receptor [7], 0.022 nM in [8] and 6.26 nM in assay [9].
